Laboratory results reported in ChEMBL document CHEMBL3621191, “Pyrimidine sulfonylacetanilides with improved potency against key mutant viruses of HIV-1 by specific targeting of a highly conserved residue” (Eur J Med Chem, 2015).
pEC50, pIC50: −log10 of the molar value.

Experiments:
[1] = Selectivity index, ratio of CC50 for human MT4 cells to EC50 for HIV1 3B infected in human MT4 cells; type: toxicity, cell-based; conditions: read-out: Ratio CC50/EC50
[2] = tested on: Human immunodeficiency virus 2; experiment: Antiviral activity against HIV2 ROD infected in human MT4 cells assessed as reduction in virus-induced cytopathogenicity incubated for 4 days by MTT method; type: functional, organism-based; conditions: Human immunodeficiency virus 2, ROD, MT4, 96 h
[3] = Cytotoxicity against human MT4 cells assessed as reduction in cell viability incubated for 4 days by MTT assay; type: cell-based
[4] = tested on: Human immunodeficiency virus 1; experiment: Antiviral activity against HIV1 3B expressing reverse transcriptase K103N + Y181C mutant infected in human MT4 cells assessed as reduction in virus-induced cytopathogenicity incubated for 4 days by MTT method; type: functional, organism-based; conditions: Human immunodeficiency virus 1, 3B, MT4, 96 h
[5] = tested on: Human immunodeficiency virus 1; experiment: Antiviral activity against HIV1 expressing reverse transcriptase L100I mutant; type: functional, organism-based
[6] = tested on: Human immunodeficiency virus 1; experiment: Antiviral activity against HIV1 3B infected in human MT4 cells assessed as reduction in virus-induced cytopathogenicity incubated for 4 days by MTT method; type: functional, organism-based; conditions: Human immunodeficiency virus 1, 3B, MT4, 96 h
[7] = tested on: Human immunodeficiency virus 1; experiment: Antiviral activity against HIV1 expressing reverse transcriptase Y181C mutant; type: functional, organism-based
[8] = molecular target: Human immunodeficiency virus type 1 reverse transcriptase (Human immunodeficiency virus 1, UniProt Q72547); experiment: Inhibition of HIV1 reverse transcriptase p66/p51 assessed as inhibition of biotin-dUTP incorporation using poly (rA)/oligo(dT)16 as template/primer incubated for 40 mins
[9] = tested on: Human immunodeficiency virus 1; experiment: Antiviral activity against HIV1 expressing reverse transcriptase F227L + V106A mutant; type: functional, organism-based
[10] = tested on: Human immunodeficiency virus 1; experiment: Antiviral activity against HIV1 expressing reverse transcriptase E138K mutant; type: functional, organism-based
[11] = tested on: Human immunodeficiency virus 1; experiment: Antiviral activity against HIV1 expressing reverse transcriptase Y188L mutant; type: functional, organism-based
[12] = tested on: Human immunodeficiency virus 1; experiment: Antiviral activity against HIV1 expressing reverse transcriptase K103N mutant; type: functional, organism-based

Row | SMILES | selectivity ratio [1] | pEC50 [2] | CC50 at 96 h [3] [nM] | pEC50 [4] | pEC50 [5] | pEC50 [6] | pEC50 [7] | pIC50 [8] | pEC50 [9] | pEC50 [10] | pEC50 [11] | pEC50 [12]
1 | Cc1cc(C#N)cc(C)c1Oc1ccnc(SCC(=O)Nc2ccc(C#N)cc2)n1 | > 71 | < 3.52 | > 301000 | < 3.52 | – | – | – | – | – | – | – | –
2 | Cc1cc(C#N)cc(C)c1Oc1ccnc(S(=O)(=O)CC(=O)Nc2ccc(F)cc2)n1 | 2930 | < 4.58 | 26100 | 5.36 | 6.13 | 8.05 | 6.17 | 5.74 | 5.83 | 6.64 | 5.40 | 7.39
3 | Cc1cc(C#N)cc(C)c1Oc1ccnc(S(=O)(=O)CC(=O)Nc2ccccc2Cl)n1 | 8.7 | < 4.90 | 12500 | < 4.90 | – | 5.84 | – | 3.84 | – | – | – | –
4 | Cc1cc(C#N)cc(C)c1Oc1ccnc(S(=O)(=O)CC(=O)Nc2cccc(Cl)c2)n1 | 831 | < 4.59 | 25400 | 5.14 | – | 7.51 | – | 6.01 | – | – | – | –
5 | Cc1cc(C#N)cc(C)c1Oc1ccnc(S(=O)(=O)CC(=O)Nc2ccc(Cl)cc2)n1 | 4740 | < 4.78 | 16600 | 5.98 | 6.72 | 8.46 | 6.89 | 6.14 | 6.17 | 7.38 | 5.85 | 8.00
6 | Cc1cc(C#N)cc(C)c1Oc1ccnc(S(=O)(=O)CC(=O)Nc2ccc(Cl)cc2Cl)n1 | 36.5 | < 4.98 | 10400 | < 4.98 | – | 6.55 | – | 4.82 | – | – | – | –
7 | Cc1cc(C#N)cc(C)c1Oc1ccnc(S(=O)(=O)CC(=O)Nc2ccc(Cl)c(Cl)c2)n1 | 666 | < 4.93 | 11700 | 5.93 | 6.33 | 7.76 | 6.49 | 6.75 | 5.50 | 6.61 | 5.83 | 7.35
8 | Cc1cc(C#N)cc(C)c1Oc1ccnc(S(=O)(=O)CC(=O)Nc2cc(Cl)cc(Cl)c2)n1 | 58.9 | < 4.62 | 24000 | < 4.62 | – | 6.39 | – | 6.04 | – | – | – | –
9 | Cc1cc(C#N)cc(C)c1Oc1ccnc(S(=O)(=O)CC(=O)Nc2ccc(Br)cc2)n1 | 5980 | < 4.81 | 15600 | 6.02 | 6.74 | 8.59 | 6.94 | 6.14 | 6.32 | 7.40 | 6.02 | 8.00
10 | Cc1cc(C#N)cc(C)c1Oc1ccnc(S(=O)(=O)CC(=O)Nc2ccc(C#N)cc2)n1 | ≥ 3540 | ≤ 4.49 | ≥ 6010 | 6.37 | 7.17 | 8.77 | 7.50 | 7.19 | 6.90 | 7.78 | 6.50 | 8.47
11 | Cc1cc(C#N)cc(C)c1Oc1ccnc(S(=O)(=O)CC(=O)Nc2ccc(C#N)cc2F)n1 | > 7810 | < 3.57 | > 269000 | < 3.57 | – | 7.46 | – | 6.53 | – | – | – | –
12 | Cc1cc(C#N)cc(C)c1Oc1ccnc(S(=O)(=O)CC(=O)Nc2cccc([N+](=O)[O-])c2)n1 | 501 | < 4.63 | 23600 | ≤ 5.13 | – | 7.33 | – | 5.85 | – | – | – | –
13 | Cc1cc(C#N)cc(C)c1Oc1ccnc(S(=O)(=O)CC(=O)Nc2ccc([N+](=O)[O-])cc2)n1 | 45800 | < 4.22 | 59600 | 6.41 | 6.95 | 8.89 | 7.39 | 7.28 | 6.85 | 7.59 | 6.56 | 8.14
14 | Cc1cc(C#N)cc(C)c1Oc1ccnc(S(=O)(=O)CC(=O)Nc2ccccc2)n1 | 1120 | < 4.53 | 29300 | < 4.53 | – | 7.59 | – | 4.80 | – | – | – | –
15 | Cc1cccc(NC(=O)CS(=O)(=O)c2nccc(Oc3c(C)cc(C#N)cc3C)n2)c1 | 75 | < 4.59 | 25700 | < 4.59 | – | 6.46 | – | 3.88 | – | – | – | –
16 | Cc1ccc(NC(=O)CS(=O)(=O)c2nccc(Oc3c(C)cc(C#N)cc3C)n2)cc1 | 1060 | < 5.13 | 7490 | ≤ 5.02 | – | 8.15 | – | 6.12 | – | – | – | –
17 | Cc1ccc(NC(=O)CS(=O)(=O)c2nccc(Oc3c(C)cc(C#N)cc3C)n2)cc1C | 179 | < 4.86 | 13900 | < 4.86 | – | 7.11 | – | 4.56 | – | – | – | –
18 | COc1ccc(NC(=O)CS(=O)(=O)c2nccc(Oc3c(C)cc(C#N)cc3C)n2)cc1 | 136 | < 5.29 | 5100 | < 5.29 | – | 7.42 | – | 5.33 | – | – | – | –
19 | Cc1cc(C#N)cc(C)c1Oc1ccnc(S(=O)(=O)CC(=O)Nc2ccccc2F)n1 | 176 | < 4.55 | 28400 | < 4.55 | – | 6.79 | – | 4.61 | – | – | – | –
20 | Cc1cc(C#N)cc(C)c1Oc1ccnc(S(=O)(=O)CC(=O)Nc2cccc(F)c2)n1 | 1680 | < 4.59 | 25900 | 5.15 | – | 7.81 | – | 6.66 | – | – | – | –
21 | O=C1Nc2ccc(Cl)cc2[C@@](C#CC2CC2)(C(F)(F)F)O1 [EFAVIRENZ] | – | – | > 6340 | – | 7.02 | 8.20 | 8.09 | – | 6.64 | 8.27 | 6.46 | –
22 | Cc1cc(C#N)cc(C)c1Oc1nc(Nc2ccc(C#N)cc2)nc(N)c1Br [ETRAVIRINE] | > 1120 | – | > 4600 | – | 7.75 | – | 7.94 | – | 7.83 | 7.77 | 7.80 | 8.49
23 | Cc1ccnc2c1NC(=O)c1cccnc1N2C1CC1 [NEVIRAPINE] | – | – | > 15000 | ≤ 5.12 | 5.46 | – | ≤ 4.91 | – | < 4.82 | 6.54 | < 4.82 | 5.03
